Data published in paper PMC12656546, “Enterohepatic Recirculation-Mediated Reabsorption of Aristolochic Acid I: Revealed by Toxicokinetics and Metabolite Identification in Rats” (Toxics, 2025).

Experiment: Qualitative analysis of AAI and metabolites in bile of bile duct-cannulated rats
Type: in vivo, F344 rats
Conditions: 30 mg/kg AAI oral, bile collected 0–3 h, 3–6 h, 6–9 h, 9–12 h, qualitative UHPLC-Q-Exactive
Protocol: Ten 6-week-old F344 rats were divided into a control group (n = 2) and a treatment group (n = 8), with equal numbers of males and females in each group. During the experiment, rats were fasted and had access to water ad libitum. Rats in the control group were administered with 0.5% CMC-Na suspension via gastric gavage. For the treatment group, rats were administered with 30 mg/kg of AAI by the same route. Rats underwent bile duct cannulation for bile sample collection. Bile samples were collected at consecutive intervals of 0–3 h, 3–6 h, 6–9 h and 9–12 h after administration.
For each bile sample, a 200 μL aliquot of bile was mixed with an equal volume of a methanol/acetonitrile (1:1, v/v) solution. After vortexing for 2 min, the mixture was centrifuged at 13,200 rpm for 10 min. The precipitate was discarded, and the supernatant was dried under nitrogen gas. The dried residue was reconstituted in 80 μL of methanol, vortexed for 2 min, and centrifuged at 13,200 rpm for 15 min. The resulting supernatant was used for further analysis.
Ultra-high-performance liquid chromatography (UHPLC) coupled with a Q-Exactive orbitrap mass spectrometer (Thermo Fisher Scientific, San Jose, CA, USA) was used to analyzed the metabolites of AAI in rat bile. An ACQUITY UPLC BEH C18 column (2.1 mm × 50 mm, 1.7 μm, Waters, Milford, MA, USA) was employed for chromatographic separation. The mobile phase consisted of water containing 5 mmol/L ammonium formate/0.1% formic acid (A) and acetonitrile (B).
Metabolites in bile samples were analyzed using electrospray ionization (ESI) in both positive and negative ion modes. The spray voltage was set at 3500 V for positive mode and 3000 V for negative mode. The ion transfer tube temperature was maintained at 350 °C with a vaporizer temperature of 300 °C. The sheath gas and auxiliary gas flow rates were 35 Arb and 10 Arb. Full-scan MS data were acquired at a resolution of 35,000 within the mass range of m/z 100–1200. For MS/MS analysis, data-dependent acquisition (DDA) was performed at a resolution of 17,500 using high-energy collision dissociation (HCD). Post-acquisition data was imported into Compound Discoverer 2.1 software to identify AAI metabolites. Blank matrices were processed alongside samples to exclude the background interferences.

Row | SMILES | detection in bile (biliary excretion)
1 | COc1cccc2c1cc([N+](=O)[O-])c1c(C(=O)OC3OC(C(=O)O)C(O)C(O)C3O)cc3c(c12)OCO3 (stereo not drawn) [AAI-O-glucuronide] | detectable in bile collected during four consecutive periods after oral administration
2 | COc1cccc2c1cc1c3c(cc4c(c32)OCO4)C(=O)N1O [ALI-N-OH, N-hydroxyaristolactam I] | detected in bile samples
3 | COc1cccc2c1c(O)c1c3c(cc4c(c32)OCO4)C(=O)N1 [ALI-9-OH, 9-hydroxyaristolactam I] | detected in bile samples
